Laboratory results: patent US4515951A, “Preparation of 5,6,7,7a-tetrahydro-4H-thieno[3,2-c]pyridin-2-one compounds” (Sanofi, priority 1980, dated 1985)
Read-outs that look alike come from different tables or passages of the source.

How the values were obtained:
[1] = tested on: platelet aggregation by ADP; assay: inhibiting action on platelet aggregation by ADP (ADP TEST), plasma of orally treated rats; format: in vivo, Wistar rats; conditions: Rattus norvegicus; for inhibition at 5 mg/kg / inhibition at 12.5 mg/kg / inhibition at 25 mg/kg / inhibition at 50 mg/kg / inhibition at 100 mg/kg: read-out: Percentage inhibition of platelet aggregation (ADP test); for minimal effective dose: oral, rats, stated for the aggregation tests (ADP and collagen), read-out: dose at which significant (or similar) platelet aggregation inhibiting activity manifests itself
Experimental: (§1) A sample of blood is taken from the jugular vein of Wistar rats, which have previously been treated with the compound to be tested. From this blood, which is citrate-treated and centrifuged, there is reconstituted a plasma containing 600,000±20,000 platelets per mm^3, which is employed in all the aggregation measurements.
(§2) 0.4 ml. of plasma is treated in a siliconised tube provided with a bar magnet which is also siliconised. The tube is introduced into an aggregometer connected to an apparatus with which variations in optical density can be recorded. When the light transmission has reached a stable value, 0.5 ml. of a solution containing […] of ADP (adenosine diphosphate)is introduced into the tube.
(§3) Platelet aggregation then causes an increase in light transmission, followed by a reduction in light transmission due to the subsequent disaggregation stage.
(§4) The maximum variation in optical density thus determined relative to that of a plasma free of platelets characterises the intensity of aggregation.
(§5) The measurements are carried out during the 2 hours which follow the taking of the blood sample, this sample being taken 3 hours after treatment with the derivative to be tested.
(§6) Groups of 20 rats were used. Each group received a single dose of the compound to be tested, administered orally, the same compound being administered at different doses ranging from 5 mg./kg. to 100 mg./kg.
(§7) The results obtained are given in the following Tables II and III, which show the percentage inhibition of platelet aggregation obtained relative to the control experiment, 3 hours after treatment with the compound to be tested.

[2] = tested on: platelet aggregation by collagen; assay: inhibiting action on platelet aggregation by collagen (COLLAGEN TEST), plasma of orally treated rats; format: in vivo, Wistar rats; conditions: Rattus norvegicus, read-out: Percentage inhibition of platelet aggregation (collagen test)
Experimental: as §1, §2, §3, §4, §5
The ADP solution is replaced by a solution of collagen (extracted from cattle tendons).
as §6, §7

[3] = tested on: platelet aggregation induced by ADP; assay: kinetic study of platelet aggregation induced by ADP (Born's nephelometric method, Bryston aggregometer), intraperitoneal; format: in vivo; conditions: rats
Experimental: A further experiment was carried out, relating to the kinetic study of the compounds of the present invention.
The blood sample is taken 10 minutes and 60 minutes after this administration and is centrifuged to obtain a plasma enriched in platelets.
The platelet aggregation in the plasma, induced by ADP is measured in a Bryston aggregometer, using Born's nephelometric method.

experimental thrombosis = assay: anti-thrombosis activity, experimental thrombosis caused by extracorporal circulation (Umetsu and Sonoi); format: in vivo, rats; conditions: for Average weight of the thrombi: control (5% gum arabic) 30.41
Experimental: This activity was studied by the experimental thrombosis method caused by extracorporal circulation, described by Umetsu and Sonoi (Thrombos. Haemost., 39, […]).
The left jugular vein and the right external carotid are exposed in rats anaesthetised by an intraperitoneal injection of pentobarbital. A shunt is provided which consists of a central catheter and two lateral catheters. A natural white silk thread is introduced into the central part and the circulation is restarted for 20 minutes. After stopping the circulation by clamping, the thread is gently withdrawn and weighed immediately.
Treatment was carried out for 48 hours, 24 hours and 2 hours before the start of the blood circulation in shunt.
The test compounds were administered orally to different groups of animals in the form of a suspension in 10 ml. of 5% gum arabic/kg., the doses used being 12.5 mg./kg., 25 mg./kg., 50 mg./kg., 100 mg./kg. and 200 mg./kg.

in vivo = conditions: mouse, iv
Description: This study was concerned with the acute, chronic, sub-chronic and delayed toxicities.

[4] = 5 mg/kg oral, single dose, 3 hours after treatment, relative to control
[5] = 12.5 mg/kg oral, single dose, 3 hours after treatment, relative to control
[6] = 25 mg/kg oral, single dose, 3 hours after treatment, relative to control
[7] = 50 mg/kg oral, single dose, 3 hours after treatment, relative to control
[8] = 100 mg/kg oral, single dose, 3 hours after treatment, relative to control
[9] = 12.5 mg/kg oral, 48, 24 and 2 hours before
[10] = 25 mg/kg oral, 48, 24 and 2 hours before
[11] = 50 mg/kg oral, 48, 24 and 2 hours before
[12] = 100 mg/kg oral, 48, 24 and 2 hours before

| Structure (SMILES) | inhibition at 5 mg/kg [1, 4] | inhibition at 12.5 mg/kg [1, 5] | inhibition at 25 mg/kg [1, 6] | inhibition at 50 mg/kg [1, 7] | inhibition at 100 mg/kg [1, 8] | inhibition at 5 mg/kg [2, 4] | inhibition at 12.5 mg/kg [2, 5] | inhibition at 25 mg/kg [2, 6] | inhibition at 50 mg/kg [2, 7] | inhibition at 100 mg/kg [2, 8] | LD50 at 24 h (in vivo) | inhibition at 5 mg/kg ([1]; po, 3 h) | inhibition at 12.5 mg/kg ([1]; po, 3 h) | inhibition at 25 mg/kg ([1]; po, 3 h) | inhibition at 50 mg/kg ([1]; po, 3 h) | inhibition at 100 mg/kg ([1]; po, 3 h) | inhibition at 5 mg/kg ([2]; po, 3 h) | inhibition at 12.5 mg/kg ([2]; po, 3 h) | inhibition at 25 mg/kg ([2]; po, 3 h) | inhibition at 50 mg/kg ([2]; po, 3 h) | also measured |
| --- | --- | --- | --- | --- | --- | --- | --- | --- | --- | --- | --- | --- | --- | --- | --- | --- | --- | --- | --- | --- | --- |
| Clc1ccccc1CN1CCc2sccc2C1 [Reference compound A, 5-(2-chlorobenzyl)-4,5,6,7-tetrahydrothieno[3,2-c]pyridine, reference compound] | 0% | 0% | 0% | 34.6% | 63.2% | 0% | 0% | 40.9% | 46.8% | 80.1% |  |  |  |  |  |  |  |  |  |  | minimal effective dose ([1]; 3 h): 100 mg/kg; percentage inhibition as a function of time (platelet aggregation, ADP) ([3]; 10 minutes after 100 mg/kg intraperitoneal in propylene glycol): 22%; percentage inhibition as a function of time (platelet aggregation, ADP) ([3]; 60 minutes after 100 mg/kg intraperitoneal in propylene glycol): 39%; Average weight of the thrombi (experimental thrombosis; [9]): 30.45 mg; Average weight of the thrombi (experimental thrombosis; [10]): 30.09 mg; Average weight of the thrombi (experimental thrombosis; [11]): 28.86 mg; Average weight of the thrombi (experimental thrombosis; [12]): 23.04 mg; Average weight of the thrombi (experimental thrombosis; 200 mg/kg oral, 48, 24 and 2 hours before): 23.13 mg; anti-thrombosis action (experimental thrombosis; even at high doses): no anti-thrombosis action whatsoever |
| O=C1C=C2CN(Cc3ccccc3[N+](=O)[O-])CCC2S1 (stereo not drawn) [Derivative 8, 5-(o-Nitrobenzyl)-5,6,7,7a-tetrahydro-4H-thieno[3,2-c]-pyridin-2-one] | 48% | 82.8% | 83.1% | 83.3% | 83.4% | 17% | 44.6% | 86.2% | 88.2% | 88.7% | 278 mg/kg |  |  |  |  |  |  |  |  |  |  |
| N#Cc1ccccc1CN1CCC2SC(=O)C=C2C1 (stereo not drawn) [Derivative 7, 5-(o-Cyanobenzyl)-5,6,7,7a-tetrahydro-4H-thieno[3,2-c]-pyridin-2-one] | 47.6% | 82.7% | 82.9% | 83.1% | 83.2% | 16.5% | 44.5% | 86.2% | 87.9% | 89.4% | 254 mg/kg |  |  |  |  |  |  |  |  |  |  |
| CC(c1ccccc1Cl)N1CCC2SC(=O)C=C2C1 (stereo not drawn) [Derivative 5, 5-[1-(2-Chlorophenyl)-ethyl]-5,6,7,7a-tetrahydro-4H-thieno[3,2-c]pyridin-2-one] | 48.4% | 82% | 82.4% | 83.2% | 83.5% | 17% | 44.8% | 86.1% | 87.8% | 88% | 286 mg/kg |  |  |  |  |  |  |  |  |  |  |
| O=C1C=C2CN(Cc3ccccc3)CCC2S1 (stereo not drawn) [Derivative 2, 5-Benzyl-5,6,7,7a-tetrahydro-4H-thieno[3,2-c]-pyridin-2-one] |  |  |  |  |  |  |  |  |  |  | 116 mg/kg | 47.8% | 82.6% | 82.9% | 83.7% | 83.7% | 16.5% | 44.2% | 85.8% | 87% | inhibition at 100 mg/kg ([2]; po, 3 h): 87.8% |
| O=C1C=C2CN(Cc3ccc(Cl)cc3)CCC2S1 (stereo not drawn) [Derivative 3, 5-(p-Chlorobenzyl)-5,6,7,7a-tetrahydro-4H-thieno-[3,2-c]pyridin-2-one] |  |  |  |  |  |  |  |  |  |  | 125 mg/kg | 48.1% | 82.4% | 83% | 83.5% | 83.6% | 17.4% | 44.9% | 86.5% | 87.2% | inhibition at 100 mg/kg ([2]; po, 3 h): 88.1%; Average weight of the thrombi (experimental thrombosis; [9]): 26.72 mg; Average weight of the thrombi (experimental thrombosis; [10]): 12.04 mg; Average weight of the thrombi (experimental thrombosis; [11]): 5.96 mg; Average weight of the thrombi (experimental thrombosis; [12]): 4.62 mg |
| O=C1C=C2CN(Cc3ccccc3Br)CCC2S1 (stereo not drawn) [Derivative 9, 5-(o-Bromobenzyl)-5,6,7,7a-tetrahydro-4H-thieno[3,2-c]-pyridin-2-one] |  |  |  |  |  |  |  |  |  |  | 118 mg/kg | 48.4% | 83.1% | 83.4% | 83.7% | 84% | 17.2% | 44.9% | 86.4% | 87.6% | inhibition at 100 mg/kg ([2]; po, 3 h): 88.6% |
| CCC(c1ccccc1Cl)N1CCC2SC(=O)C=C2C1 (stereo not drawn) [Derivative 6, 5-[1-(2-Chlorophenyl)-propyl]-5,6,7,7a-tetrahydro-4H-thieno[3,2-c]pyridin-2-one] | 48.7% | 83% | 83.4% | 83.9% | 83.9% | 16.8% | 44.4% | 85.7% | 89% | 89.2% | 121 mg/kg |  |  |  |  |  |  |  |  |  |  |
| Cc1ccccc1CN1CCC2SC(=O)C=C2C1 (stereo not drawn) [Derivative 4, 5-(o-Methylbenzyl)-5,6,7,7a-tetrahydro-4H-thieno-[3,2-c]pyridin-2-one] |  |  |  |  |  |  |  |  |  |  | 110 mg/kg | 48% | 81.9% | 82.1% | 82.8% | 82.9% | 17.1% | 45.2% | 85.9% | 88.1% | inhibition at 100 mg/kg ([2]; po, 3 h): 88.2% |
| N#Cc1ccccc1CN1CCc2sccc2C1 [Reference compound B, 5-(2-cyanobenzyl)-4,5,6,7-tetrahydrothieno[3,2-c]pyridine, reference compound] | 0% | 0% | 0% | 35.5% | 63.8% | 0% | 0% | 38.5% | 51.2% | 78.8% | 45 mg/kg |  |  |  |  |  |  |  |  |  | minimal effective dose ([1]; 3 h): 100 mg/kg |
